Assay results as given in US20220204497A1, “NOVEL COMPOUND HAVING ANTICANCER ACTIVITY, AND METHOD FOR PRODUCING SAME” (MEDICINAL BIOCONVERGENCE RESEARCH CENTER, priority 2019, published 2022).
Several values for one entry are separate records, joined by “and”; a condition that tells them apart may be missing. Equal values may be shown once.

Experiments:
AIMP2-DX2 = biological target: T1, AIMP2-DX2 (Homo sapiens, UniProt Q13155); test: DX2-nanoluciferase assay (DX2 expression change) in transfected A549 cells; conditions: for inhibition at 10 µM / inhibition at 40 µM: A549, 4 h; for inhibition at 10 µM: read-out: DX-Nanoluciferase activity (10 μM), 10 μM, 4 hours treatment, A549 cells transfected with nanoluciferase-DX2; for inhibition at 40 µM: read-out: DX-Nanoluciferase activity (40 μM), 40 μM, 4 hours treatment, A549 cells transfected with nanoluciferase-DX2
T1 sequence (Q13155 1-251 isoform Q13155-2): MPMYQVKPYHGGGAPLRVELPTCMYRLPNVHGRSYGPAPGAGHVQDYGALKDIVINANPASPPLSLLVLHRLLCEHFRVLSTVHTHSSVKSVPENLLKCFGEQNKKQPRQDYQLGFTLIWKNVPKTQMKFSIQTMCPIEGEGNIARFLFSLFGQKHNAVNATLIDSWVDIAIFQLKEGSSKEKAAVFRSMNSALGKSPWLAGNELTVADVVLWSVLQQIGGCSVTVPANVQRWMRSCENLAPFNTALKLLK
Experimental: After cloning DX2 into a plasmid expressing nanoluciferase, the plasmid was transfected into A549 cells. Transfected cells were seeded 1×10^4 per well in a 96-well plate and stabilized for 12 hours. […] Cell viability was measured by the MTT method after 72 hours of treatment with each concentration of the compound in A549 cells.

A549 cells = test: Cell viability by MTT method in A549 cells; format: cell-based; set-up: concentration or dose not given beside the values; conditions: 72 hours treatment
[1] = 4 hours treatment, A549 cells transfected with nanoluciferase-DX2
[2] = inhibitory effect on AIMP2-DX2 expression

| Structure (SMILES) | DX-Nanoluciferase activity (10 μM) (AIMP2-DX2; [1]) | inhibition at 10 µM (AIMP2-DX2) | inhibition at 40 µM (AIMP2-DX2; [2]) | Cell Viability (% inhibition) (A549) (A549 cells) | DX-Nanoluciferase activity (40 μM) (AIMP2-DX2; 40 μM, 4 hours treatment, A549 cells transfected with nanoluciferase-DX2, inhibitory effect on AIMP2-DX2 expression) |
| --- | --- | --- | --- | --- | --- |
| Cc1ccc(S(=O)(=O)N[C@@H](Cc2c[nH]c3ccccc23)C(=O)NNC(=O)C23CC4CC(CC(C4)C2)C3)cc1 [Compound 186, N—((S)-1-(2-((3S,5S,7S)-adamantane-1-carbonyl)hydrazinyl)-3-(1H-indol-3-yl)-1-oxopropan-2-yl)-4-methylbenzenesulfonamide] | 78.43 ± 6.05 (10 μM) |  |  | 59.96 ± 10.37% |  |
| Cc1ccc(-c2csc(NC(=O)[C@H](Cc3c[nH]c4ccccc34)NS(=O)(=O)c3ccc(Br)cc3)n2)cc1 [Compound 187, (S)-2-(4-Bromophenylsulfonamido)-3-(1H-indol-3-yl)-N-(4-(p-tolyl)thiazol-2-yl)propanamide] |  | 34.9 ± 10.6% |  | 61.41 ± 4.21% |  |
| Cc1ccc(S(=O)(=O)N[C@@H](Cc2c[nH]c3ccccc23)C(=O)NCCc2ccccc2)cc1 [Compound 188, (S)-3-(1H-indol-3-yl)-2-(4-methylphenylsulfonamido)-N-phenethylpropanamide] |  | 61.1 ± 12.9% |  | 53.90 ± 1.97% |  |
| COc1ccc(C(=O)NNC(=O)[C@H](Cc2c[nH]c3ccccc23)NS(=O)(=O)c2ccc(C)cc2)cc1 [Compound 191, (S)—N-(3-(1H-Indol-3-yl)-1-(2-(4-methoxybenzoyl)hydrazinyl)-1-oxopropan-2-yl)-4-methylbenzenesulfonamide] | 8.09 ± 6.94 (10 μM) |  |  | 49.17 ± 2.36% |  |
| N#Cc1ccc(-c2csc(NC(=O)[C@H](Cc3c[nH]c4ccccc34)NS(=O)(=O)c3ccc(Br)cc3)n2)cc1 [Compound 192, (S)-2-(4-Bromophenylsulfonamido)-N-(4-(4-cyanophenyl)thiazol-2-yl)-3-(1H-Indol-3-yl)propanamide] |  | 15.5 ± 3.27% |  | 81.69 ± 2.49% |  |
| O=C(Nc1nc(-c2ccc(C(F)(F)F)cc2)cs1)[C@H](Cc1c[nH]c2ccccc12)NS(=O)(=O)c1ccc(Br)cc1 [Compound 193, (S)-2-(4-Bromophenylsulfonamido)-3-(1H-Indol-3-yl)-N-(4-(4-(trifluoromethyl)phenyl)thiazol-2-yl)propanamide] |  | 49.3 ± 9.52% |  | 88.98 ± 0.59% and 88.98 ± 10.59% |  |
| O=C(NCCc1ccccc1)[C@H](Cc1c[nH]c2ccccc12)NS(=O)(=O)c1ccc(Br)cc1 [Compound 196, (S)-2-(4-Bromophenylsulfonamido)-3-(1H-indol-3-yl)-N-phenethylpropanamide] |  | 28.2 ± 2.11% |  | 79.27 ± 0.55% |  |
| O=C(NNC(=O)C12CC3CC(CC(C3)C1)C2)[C@H](Cc1c[nH]c2ccccc12)NS(=O)(=O)c1ccc(Br)cc1 [Compound 197, N—((S)-1-(2-((3S,5S,7S)-adamantane-1-carbonyl)hydrazinyl)-3-(1H-indol-3-yl)-1-oxopropan-2-yl)-4-bromobenzenesulfonamide] | 43.54 ± 5.26 (10 μM) and 43.64 ± 5.26 (10 μM) |  |  | 84.86 ± 1.09% |  |
| O=C(NCCc1ccc(F)cc1)[C@H](Cc1c[nH]c2ccccc12)NS(=O)(=O)c1ccc(Br)cc1 [Compound 198, (S)-2-(4-Bromophenylsulfonamido)-N-(4-fluorophenethyl)-3-(1H-indol-3-yl)propanamide] |  | 44.2 ± 8.7% |  | 82.05 ± 0.64% |  |
| COc1ccc(CCNC(=O)[C@H](Cc2c[nH]c3ccccc23)NS(=O)(=O)c2ccc(Br)cc2)cc1 [Compound 199, (S)-2-(4-Bromophenylsulfonamido)-3-(1H-indol-3-yl)-N-(4-methoxyphenethyl)propanamide] |  |  | 30.6 ± 8.13% | 84.34 ± 0.87% |  |
| O=C(NCCCc1ccccc1)[C@H](Cc1c[nH]c2ccccc12)NS(=O)(=O)c1ccc(Br)cc1 [Compound 200, (S)-2-(4-Bromophenylsulfonamido)-3-(1H-indol-3-yl)-N-(3-phenylpropyl)propanamide] |  |  | 46.4 ± 4.51% | 79.27 ± 0.9% |  |
| O=C(NC12CC3CC(CC(C3)C1)C2)[C@H](Cc1c[nH]c2ccccc12)NS(=O)(=O)c1ccc(Br)cc1 [Compound 201, (S)—N((3R,5R,7R)-adamantan-1-yl)-2-(4-bromophenylsulfonamido)-3-(1H-Indol-3-yl)propanamide] |  |  |  | 87.1 ± 0.46% | 58.25 ± 4.09 |
| COc1ccc(N2CCN(C(=O)[C@H](Cc3c[nH]c4ccccc34)NS(=O)(=O)c3ccc(Br)cc3)CC2)cc1 [Compound 202, (S)—N-(3-(1H-indol-3-yl)-1-(4-(4-methoxyphenyl)piperazin-1-yl)-1-oxopropan-2-yl)-4-bromobenzenesulfonamide] |  |  | 38.6 ± 11.3% | 78.44 ± 2.44% |  |
| COc1ccc(N2CCN(C(=O)[C@H](Cc3c[nH]c4ccccc34)NS(=O)(=O)c3ccc(C)cc3)CC2)cc1 [Compound 203, (S)—N-(3-(1H-indol-3-yl)-1-(4-(4-methoxyphenyl)piperazin-1-yl)-1-oxopropan-2-yl)-4-methylbenzenesulfonamide] |  |  | 35.1 ± 14.2% | 48.15 ± 3.26% |  |
| COc1ccc(-c2csc(NC(=O)[C@H](Cc3c[nH]c4ccc(O)cc34)NS(=O)(=O)c3ccc(Br)cc3)n2)cc1 [Compound 217, (S)-2-(4-Bromophenylsulfonamido)-3-(5-hydroxy-1H-indol-3-yl)-N-(4-(4-methoxyphenyl)thiazol-2-yl)propanamide] |  | 21.3% |  | 89.41 ± 0.79% |  |
| COc1ccc(-c2csc(NC(=O)[C@H](Cc3c[nH]c4ccc(C)cc34)NS(=O)(=O)c3ccc(Br)cc3)n2)cc1 [Compound 218, (S)-2-(4-Bromophenylsulfonamido)-N-(4-(4-methoxyphenyl)thiazol-2-yl)-3-(5-methyl-1H-indol-3-yl)propanamide] |  | 34.8% |  | 90.98 ± 1% |  |

The next lines start with results.

| DX-Nanoluciferase activity (10 μM) (AIMP2-DX2; [1]) | inhibition at 10 µM (AIMP2-DX2) | inhibition at 40 µM (AIMP2-DX2; [2]) | Structure (SMILES) | Cell Viability (% inhibition) (A549) (A549 cells) | DX-Nanoluciferase activity (40 μM) (AIMP2-DX2; 40 μM, 4 hours treatment, A549 cells transfected with nanoluciferase-DX2, inhibitory effect on AIMP2-DX2 expression) |
| --- | --- | --- | --- | --- | --- |
|  | 46.9 ± 8.36% |  | COc1ccc(-c2csc(NC(=O)[C@H](Cc3c[nH]c4ccc(F)cc34)NS(=O)(=O)c3ccc(Br)cc3)n2)cc1 [Compound 219, (S)-2-(4-Bromophenylsulfonamido)-3-(5-fluoro-1H-indol-3-yl)-N-(4-(4-methoxyphenyl)thiazol-2-yl)propanamide] | 95.58 ± 0.08% |  |
|  | 15.9 ± 19.4% |  | Cc1ccc(S(=O)(=O)N[C@@H](Cc2c[nH]c3ccccc23)C(=O)NCCc2ccc(C(=O)O)cc2)cc1 [Compound 220, (S)-4-(2-(3-(1H-indol-3-yl)-2-(4-methylphenylsulfonamido)propanamido)ethyl)benzoic acid] | −11.09 ± 8.4% |  |
|  | 40.1 ± 3.09% |  | Cc1ccc(S(=O)(=O)N[C@@H](Cc2c[nH]c3ccccc23)C(=O)NCCc2ccc(Br)cc2)cc1 [Compound 221, (S)—N-(4-bromophenethyl)-3-(1H-indol-3-yl)-2-(4-methylphenylsulfonamido)propanamide] | 97.31 ± 0.8% |  |
|  | 31.3 ± 14.7% |  | Cc1ccc(S(=O)(=O)N[C@@H](Cc2c[nH]c3ccccc23)C(=O)NCCc2c[nH]c3ccccc23)cc1 [Compound 222, (S)—N-(2-(1H-indol-3-yl)ethyl)-3-(1H-indol-3-yl)-2-(4-methylphenylsulfonamido)propanamide] | 91.05 ± 1.38% |  |
|  | 34.9 ± 11.8% |  | Cc1ccc(CCNC(=O)[C@H](Cc2c[nH]c3ccccc23)NS(=O)(=O)c2ccc(C)cc2)cc1 [Compound 223, (S)-3-(1H-indol-3-yl)-N-(4-methylphenethyl)-2-(4-methylphenylsulfonamido)propanamide] | 93.28 ± 1.51% |  |
|  | 42.7 ± 8.97% |  | CCOC(=O)C(Cc1c[nH]c2ccccc12)NC(=O)[C@H](Cc1c[nH]c2ccccc12)NS(=O)(=O)c1ccc(C)cc1 (stereo partly drawn) [Compound 224, Ethyl 2-((S)-3-(1H-indol-3-yl)-2-(4-methylphenylsulfonamido)propanamido)-3-(1H-indol-3-yl)propanoate] | 93.83 ± 0.34% |  |
|  | 88.7 ± 6.08% |  | Cc1ccc(S(=O)(=O)N[C@@H](Cc2c[nH]c3ccccc23)C(=O)NCCc2ccc(Cl)cc2)cc1 [Compound 225, (S)—N-(4-chlorophenethyl)-3-(1H-indol-3-yl)-2-(4-methylphenylsulfonamido)propanamide] | 95.8 ± 0.48% |  |
|  | 38.1 ± 14.9% |  | Cc1ccc(S(=O)(=O)N[C@@H](Cc2c[nH]c3ccccc23)C(=O)NC(Cc2c[nH]c3ccccc23)C(=O)O)cc1 (stereo partly drawn) [Compound 226, 2-((S)-3-(1H-indol-3-yl)-2-(4-methylphenylsulfonamido)propanamido)-3-(1H-Indol-3-yl)propanoic acid] | 1.11 ± 7.23% |  |
